From patent US9045454B2, “Bicyclic pyrrole derivatives useful as agonists of GPR120” (Janssen Pharmaceutica NV, priority 2013, dated 2015)

Test system: C57bl/6J Mice
Experiment: GPR120 C57bl6 Mouse IPGTT
Format: in vivo
Conditions: 30.0 mg/kg, dosed 30 minutes prior to glucose (IP 1.5 g/kg)
Protocol: Male, C57bl/6J Mice were ordered in at 8 weeks of age from Jackson Labs. Individual mice weighed anywhere in the range of 25-30 grams on study day. The mice were fasted, with removal of food occurring at 7 am on the morning of the study. Animals were moved into the room at 10:00 am, to give them time to acclimate. Glucose (insulin syringes) was drawn up either the night before or the morning of the study. Glucose was dosed (IP) at 1.5 g/kg at 7.5 ml/kg (20% glucose straight TEKNOVA, 250 ml sterile bottle w/ catalogue number G0525). Test compounds were kept spinning and were only drawn into the syringes prior to study commencement. Animals were bled via tail snip to determine basal glucose levels prior to dosing of treatments. An Ascensia BREEZE Blood Glucose Monitoring System by Bayer (using unique 10-test disks) was used for determining glucose levels. The bleeds started at approximately 12:45 pm and dosing started, at 1-minute intervals, immediately after. All groups were dosed 30 minutes prior to glucose administration at a dose volume of 10 ml/kg (the dose volume was calculated separately for each individual animal). Thirty minutes after the first dose animals were bled again for a second baseline, or T=0, and immediately dosed with glucose via an i.p. injection. The exact dose volume for glucose was also calculated separately for each individual animal. […]

Cc1c(CCC(=O)O)ccc(OCc2cccn2-c2ccc(Cl)cc2)c1C [Compound 1, 3-(4-{[1-(4-Chlorophenyl)-1H-pyrrol-2-yl]methoxy}-2,3-dimethylphenyl)propanoic acid]
GPR120 C57bl6 Mouse IPGTT Results: not different
